Data taken from patent US20240116985A1, “STAPLED PEPTIDES AND METHODS THEREOF” (priority 2020, published 2024).

Assays:
[1] = molecular target: T1, full-length beta-Catenin (Uniprot ID P35222) (Homo sapiens, UniProt P35222); assay: Fluorescence polarization IC50 (beta-catenin / 5FAM-TCF4 10-53 competition); format: binding; settings: fluorescence polarization; read-out: beta-Catenin FP IC50
T1 construct: 10 nM full-length beta-Catenin (Uniprot ID P35222)
T1 sequence (P35222 1-781): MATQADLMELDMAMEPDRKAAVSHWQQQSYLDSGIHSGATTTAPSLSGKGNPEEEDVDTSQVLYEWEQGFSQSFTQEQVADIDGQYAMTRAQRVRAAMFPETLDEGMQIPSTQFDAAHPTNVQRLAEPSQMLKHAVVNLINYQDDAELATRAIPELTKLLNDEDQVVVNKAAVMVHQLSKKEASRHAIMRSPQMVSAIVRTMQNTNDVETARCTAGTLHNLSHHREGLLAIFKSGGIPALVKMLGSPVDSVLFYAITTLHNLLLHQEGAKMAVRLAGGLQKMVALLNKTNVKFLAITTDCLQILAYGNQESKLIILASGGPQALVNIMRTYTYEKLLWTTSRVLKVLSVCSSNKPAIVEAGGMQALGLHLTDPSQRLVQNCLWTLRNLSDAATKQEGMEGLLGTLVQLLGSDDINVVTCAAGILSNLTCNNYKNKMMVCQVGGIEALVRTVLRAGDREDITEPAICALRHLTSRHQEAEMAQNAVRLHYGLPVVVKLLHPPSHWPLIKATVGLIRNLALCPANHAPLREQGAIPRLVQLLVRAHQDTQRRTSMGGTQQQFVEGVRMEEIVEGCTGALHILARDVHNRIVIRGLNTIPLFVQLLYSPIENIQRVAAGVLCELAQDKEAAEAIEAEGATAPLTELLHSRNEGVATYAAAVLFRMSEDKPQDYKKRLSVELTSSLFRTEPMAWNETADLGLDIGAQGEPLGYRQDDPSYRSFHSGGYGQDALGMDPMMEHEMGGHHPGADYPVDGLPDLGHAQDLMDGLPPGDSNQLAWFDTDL

[2] = molecular target: T2, beta-catenin/TCF4 engagement (Homo sapiens, UniProt P35222); assay: Nano-BRET target engagement assay (B-cat-Halo & TCF4-Luc in HEK293 cells); format: cell-based; settings: absolute IC50; read-out: NanoBRET Abs IC50
T2 construct: expressed in transfected cells; host or cells: HEK293
T2 sequence (P35222 1-781): T1 sequence (P35222 1-781)

Compound | IC50 [1] | IC50 [2]
COCCOCCOCCOCCC(=O)NCCCC[C@@H]1NC(=O)[C@H](CCC(N)=O)NC(=O)[C@H](CC(=O)O)NC(=O)C2(CCCC=CCCCOC(=O)N3CC[C@@](C(=O)N[C@@H](Cc4ccccc4)C(=O)N[C@@H](Cc4csc5ccccc45)C(=O)N[C@@H](CC(=O)N4CCOCC4)C(N)=O)(C3)NC(=O)[C@H](CC(C)C)NC(=O)[C@H](Cc3ccccc3)NC(=O)[C@H](C)NC1=O)CCCC=CC[C@]1(CCCN1C(C)=O)C(=O)N[C@@H](CC(N)=O)C(=O)N[C@@H](CC1CCCCC1)C(=O)N2 (stereo partly drawn) [I-2526, Ac-PL3-Asn-Cha-B5-Asp-Gln-[mPEG4]Lys-Ala-Phe-Leu-PyrS2-Phe-BztA-MorphAsn-NH2] | 224 nM | > 20000 nM
CC(=O)N1CCC[C@]12CC=CCCCC1(CCCC=CCCCOC(=O)N3CC[C@@](C(=O)N[C@@H](Cc4ccccc4)C(=O)N[C@@H](Cc4csc5ccccc45)C(=O)N[C@@H](CC(=O)N4CCOCC4)C(N)=O)(C3)NC(=O)[C@H](CC(C)C)NC(=O)[C@H](Cc3ccccc3)NC(=O)[C@H](C)NC(=O)[C@H](CCCCNC(=O)CN3CCOCC3)NC(=O)[C@H](CCC(N)=O)NC(=O)[C@H](CC(=O)O)NC1=O)NC(=O)[C@H](CC1CCCCC1)NC(=O)[C@H](CC(N)=O)NC2=O (stereo partly drawn) [I-2527, Ac-PL3-Asn-Cha-B5-Asp-Gln-[MorphAc]Lys-Ala-Phe-Leu-PyrS2-Phe-BztA-MorphAsn-NH2] | 263 nM | > 20000 nM
CC(=O)N1CCC[C@]12CC=CCCCC1(CCCC=CCCCOC(=O)N3CC[C@@](C(=O)N[C@@H](Cc4ccccc4C(F)(F)F)C(=O)N[C@@H](Cc4csc5ccccc45)C(=O)N[C@@H](CCC(=O)N(C)C)C(N)=O)(C3)NC(=O)[C@H](Cc3ccccc3)NC(=O)[C@H](Cc3ccccc3)NC(=O)[C@H](C)NC(=O)[C@H](C)NC(=O)[C@H](Cc3cccc(C(=O)O)c3)NC(=O)[C@H](CC(=O)O)NC1=O)NC(=O)[C@H](CC(C)(C)C)NC(=O)[C@H](CC(=O)O)NC2=O (stereo partly drawn) [I-2534, Ac-PL3-Asp-Npg-B5-Asp-3COOHF-Ala-Ala-Phe-Phe-PyrS2-2F3MeF-BztA-Me2Gln-NH2] | 21 nM | 4400 nM
CC(=O)N1CCC[C@]12CC=CCCCC1(CCCC=CCCCOC(=O)N3CC[C@@](C(=O)N[C@@H](Cc4ccccc4C(F)(F)F)C(=O)N[C@@H](Cc4csc5ccccc45)C(=O)N[C@@H](CCC(=O)N(C)C)C(N)=O)(C3)NC(=O)[C@H](CCC(=O)N(C)C)NC(=O)[C@H](Cc3ccccc3)NC(=O)[C@H](C)NC(=O)[C@H](C)NC(=O)[C@H](Cc3cccc(C(=O)O)c3)NC(=O)[C@H](CC(=O)O)NC1=O)NC(=O)[C@H](CC(C)(C)C)NC(=O)[C@H](CC(=O)O)NC2=O (stereo partly drawn) [I-2535, Ac-PL3-Asp-Npg-B5-Asp-3COOHF-Ala-Ala-Phe-Me2Gln-PyrS2-2F3MeF-BztA-Me2Gln-NH2] | 11 nM | 3700 nM
CC(=O)N1CCC[C@]12CC=CCCCC1(CCCC=CCCCOC(=O)N3CC[C@@](C(=O)N[C@@H](Cc4ccccc4C(F)(F)F)C(=O)N[C@@H](Cc4csc5ccccc45)C(=O)N[C@@H](CCC(=O)N(C)C)C(N)=O)(C3)NC(=O)[C@H](CCC(=O)N(C)C)NC(=O)[C@H](Cc3ccccc3)NC(=O)[C@H](C)NC(=O)[C@H](C)NC(=O)[C@H](Cc3cccc(C(=O)O)c3)NC(=O)[C@H](CC(=O)O)NC1=O)NC(=O)[C@H](CC(C)(C)C)NC(=O)[C@H](CC(=O)O)NC2=O (stereo partly drawn) [I-2536, Ac-PL3-Asp-Npg-B5-Asp-3COOHF-Ala-Ala-Phe-Me2Gln-PyrS2-2F3MeF-BztA-Me2Gln-NH2] | 13 nM | 4500 nM

Results, then the compound that gave them:

IC50 [1] | IC50 [2] | Compound
11 nM | 2900 nM | CC(=O)N1CCC[C@]12CC=CCCCC1(CCCC=CCCCOC(=O)N3CC[C@@](C(=O)N[C@@H](Cc4ccccc4C(F)(F)F)C(=O)N[C@@H](Cc4csc5ccccc45)C(=O)N[C@@H](CCC(=O)N(C)C)C(N)=O)(C3)NC(=O)[C@H](CCC(=O)N3CCOCC3)NC(=O)[C@H](Cc3ccccc3)NC(=O)[C@H](C)NC(=O)[C@H](C)NC(=O)[C@H](Cc3cccc(C(=O)O)c3)NC(=O)[C@H](CC(=O)O)NC1=O)NC(=O)[C@H](CC(C)(C)C)NC(=O)[C@H](CC(=O)O)NC2=O (stereo partly drawn) [I-2537, Ac-PL3-Asp-Npg-B5-Asp-3COOHF-Ala-Ala-Phe-MorphGln-PyrS2-2F3MeF-BztA-Me2Gln-NH2]
14 nM | 3500 nM | CC(=O)N1CCC[C@]12CC=CCCCC1(CCCC=CCCCOC(=O)N3CC[C@@](C(=O)N[C@@H](Cc4ccccc4C(F)(F)F)C(=O)N[C@@H](Cc4csc5ccccc45)C(=O)N[C@@H](CCC(=O)N(C)C)C(N)=O)(C3)NC(=O)[C@H](CCC(=O)N3CCOCC3)NC(=O)[C@H](Cc3ccccc3)NC(=O)[C@H](C)NC(=O)[C@H](C)NC(=O)[C@H](Cc3cccc(C(=O)O)c3)NC(=O)[C@H](CC(=O)O)NC1=O)NC(=O)[C@H](CC(C)(C)C)NC(=O)[C@H](CC(=O)O)NC2=O (stereo partly drawn) [I-2538, Ac-PL3-Asp-Npg-B5-Asp-3COOHF-Ala-Ala-Phe-MorphGln-PyrS2-2F3MeF-BztA-Me2Gln-NH2]
11 nM | 3600 nM | CC(=O)NCCCC[C@@H]1NC(=O)[C@H](Cc2ccccc2)NC(=O)[C@H](C)NC(=O)[C@H](C)NC(=O)[C@H](Cc2cccc(C(=O)O)c2)NC(=O)[C@H](CC(=O)O)NC(=O)C2(CCCC=CCCCOC(=O)N3CC[C@@](C(=O)N[C@@H](Cc4ccccc4C(F)(F)F)C(=O)N[C@@H](Cc4csc5ccccc45)C(=O)N[C@@H](CCC(=O)N(C)C)C(N)=O)(C3)NC1=O)CCCC=CC[C@]1(CCCN1C(C)=O)C(=O)N[C@@H](CC(=O)O)C(=O)N[C@@H](CC(C)(C)C)C(=O)N2 (stereo partly drawn) [I-2539, Ac-PL3-Asp-Npg-B5-Asp-3COOHF-Ala-Ala-Phe-AcLys-PyrS2-2F3MeF-BztA-Me2Gln-NH2]
14 nM | 3500 nM | CC(=O)NCCCC[C@@H]1NC(=O)[C@H](Cc2ccccc2)NC(=O)[C@H](C)NC(=O)[C@H](C)NC(=O)[C@H](Cc2cccc(C(=O)O)c2)NC(=O)[C@H](CC(=O)O)NC(=O)C2(CCCC=CCCCOC(=O)N3CC[C@@](C(=O)N[C@@H](Cc4ccccc4C(F)(F)F)C(=O)N[C@@H](Cc4csc5ccccc45)C(=O)N[C@@H](CCC(=O)N(C)C)C(N)=O)(C3)NC1=O)CCCC=CC[C@]1(CCCN1C(C)=O)C(=O)N[C@@H](CC(=O)O)C(=O)N[C@@H](CC(C)(C)C)C(=O)N2 (stereo partly drawn) [I-2540, Ac-PL3-Asp-Npg-B5-Asp-3COOHF-Ala-Ala-Phe-AcLys-PyrS2-2F3MeF-BztA-Me2Gln-NH2]
37 nM | 7300 nM | CC(=O)N1CCC[C@]12CC=CCCCC1(CCCC=CCCCOC(=O)N3CC[C@@](C(=O)N[C@@H](Cc4ccccc4C(F)(F)F)C(=O)N[C@@H](Cc4csc5ccccc45)C(=O)N[C@@H](CCC(=O)N4CCOCC4)C(N)=O)(C3)NC(=O)[C@H](Cc3ccccc3)NC(=O)[C@H](Cc3ccccc3)NC(=O)[C@H](C)NC(=O)[C@H](C)NC(=O)[C@H](Cc3cccc(C(=O)O)c3)NC(=O)[C@H](CC(=O)O)NC1=O)NC(=O)[C@H](CC(C)(C)C)NC(=O)[C@H](CC(=O)O)NC2=O (stereo partly drawn) [I-2543, Ac-PL3-Asp-Npg-B5-Asp-3COOHF-Ala-Ala-Phe-Phe-PyrS2-2F3MeF-BztA-MorphGln-NH2]
11 nM | 4100 nM | CC(=O)N1CCC[C@]12CC=CCCCC1(CCCC=CCCCOC(=O)N3CC[C@@](C(=O)N[C@@H](Cc4ccccc4C(F)(F)F)C(=O)N[C@@H](Cc4csc5ccccc45)C(=O)N[C@@H](CCC(=O)N4CCOCC4)C(N)=O)(C3)NC(=O)[C@H](CCC(=O)N(C)C)NC(=O)[C@H](Cc3ccccc3)NC(=O)[C@H](C)NC(=O)[C@H](C)NC(=O)[C@H](Cc3cccc(C(=O)O)c3)NC(=O)[C@H](CC(=O)O)NC1=O)NC(=O)[C@H](CC(C)(C)C)NC(=O)[C@H](CC(=O)O)NC2=O (stereo partly drawn) [I-2544, Ac-PL3-Asp-Npg-B5-Asp-3COOHF-Ala-Ala-Phe-Me2Gln-PyrS2-2F3MeF-BztA-MorphGln-NH2]
